Values of other authors as cited in patent US20040202714A1, “Oral pharmaceutical composition” (Daiichi Suntory Pharma Co., Ltd., priority 1999, published 2004).

Columns and labels:
[1] = tested on: bacterial strains from dental infectious diseases; conditions: increasingly resistant strains from dental infectious diseases
[2] = tested on: penicillin-resistant pneumococci (PRSP)
[3] = tested on: methicillin-sensitive Staphylococcus aureus (MSSA)
genus Bacteroides = conditions: anaerobic bacteria such as the genus Bacteroides
Haemophilus influenzae = conditions: gram-negative bacteria such as Haemophilus influenzae
Porphyromonas gingivalis = conditions: pathogenic bacteria of periodontis

In the case of `C[C@@H](O)[C@H]1C(=O)N2C(C(=O)O)=C([C@H]3CCCO3)S[C@H]12` [Compound 1, sodium (+)-(5R, 6S)-6-[(R)-1-hydroxyethyl]-7-oxo-3-[(R)-2-tetrahydrofuryl]4-thia-1-azabicyclo [3.2.0] hept-2-ene-2-carboxylate 5/2 hydrate], the antibacterial activity [1] is listed as “potent antibacterial activity”, the antibacterial activity [2] is listed as “potent antibacterial activity” and the antibacterial activity (enterococci) is listed as “potent antibacterial activity”. For the same compound, the antibacterial activity (oral staphylococci) was “potent antibacterial activity”, the antibacterial activity [3] was “potent antibacterial activity” and the antibacterial activity (Streptococcus pyrogenes) was “potent antibacterial activity”. For the same compound, the antibacterial spectrum (genus Bacteroides) was “wide antibacterial spectrum”, the antibacterial activity (Streptococcus pneumoniae) was “potent antibacterial activity” and the antibacterial spectrum (Haemophilus influenzae) was “wide antibacterial spectrum”. For the same compound, the antibacterial activity (Porphyromonas gingivalis) was “potent antibacterial activity”.
